The record followed here is ChEMBL document CHEMBL3091361, “Synthesis, structure elucidation and in vitro anticancer activities of novel derivatives of diethyl (2E)-2-[(2E)-(1-arylimidazolidin-2-ylidene)hydrazono]succinate and ethyl (4-oxo-8-aryl-4,6,7,8-tetrahydroimidazo[2,1-c][1,2,4]triazin-3-yl)acetate” (Bioorg Med Chem, 2013).

Data set [1] in a line: Selectivity ratio for human T47D cells over human HSF cells after 72 hrs. The class given is ADME, cell-based. Particulars: T47D cells versus HSF cells.
Data set [2] in a line: Selectivity ratio for human HeLa cells over human HSF cells after 72 hrs. Particulars: HeLa cells versus HSF cells. In kind it is ADME, cell-based.
The nature of data set [3]: Selectivity ratio for human HeLa cells over human HSF cells after 48 hrs. In kind it is ADME, cell-based. To be noted: HeLa cells versus HSF cells.
Data set [4] is described as follows: Selectivity ratio for human HeLa cells over human HSF cells after 24 hrs. The class given is ADME, cell-based. To be noted: HeLa cells versus HSF cells.
In data set [5] the test system is HeLa. As to the kind of experiment: Induction of necrosis in human HeLa cells at 50 ug/ml after 48 hrs by propidium iodide/Hoechst 33342 staining-based confocal microscopy (reference value: 10%). The class given is functional.
The nature of data set [6]: Induction of apoptosis in human HSF cells at 50 ug/ml after 24 hrs by propidium iodide/Hoechst 33342 staining-based confocal microscopy (reference value: 2%). In kind it is cell-based.
Data set [7] deals with T47D. As to the kind of experiment: Induction of apoptosis in human T47D cells at 50 ug/ml after 72 hrs by propidium iodide/Hoechst 33342 staining-based confocal microscopy (reference value: 5%). The class given is functional.
Data set [8] concerns HeLa. As to the kind of experiment: Induction of necrosis in human HeLa cells at 50 ug/ml after 24 hrs by propidium iodide/Hoechst 33342 staining-based confocal microscopy (reference value: 5%). In kind it is functional.
Data set [9] is described as follows: Cytotoxicity against human MM1R cells at 50 ug/ml after 72 hrs by BrdU incorporation assay relative to control. In kind it is functional. Particulars: MM.1R, read-out: GI.
The test system of data set [10] is T47D. As to the kind of experiment: Induction of necrosis in human T47D cells at 50 ug/ml after 72 hrs by propidium iodide/Hoechst 33342 staining-based confocal microscopy (reference value: 10%). The class given is functional.
The subject of data set [11] is HeLa. Put plainly: Induction of necrosis in human HeLa cells at 50 ug/ml after 72 hrs by propidium iodide/Hoechst 33342 staining-based confocal microscopy (reference value: 10%). The class given is functional.
Data set [12] relates to HeLa. Put plainly: Cytotoxicity against human HeLa cells at 50 ug/ml after 48 hrs by BrdU incorporation assay relative to control. In kind it is functional. Particulars: read-out: GI. (In general: Uptake of a labelled nucleoside into DNA is a usual measure of proliferation.)
Data set [13] has as its system HeLa. As to the kind of experiment: Induction of apoptosis in human HeLa cells at 50 ug/ml after 24 hrs by propidium iodide/Hoechst 33342 staining-based confocal microscopy (reference value: 2%). In kind it is functional.
The subject of data set [14] is T47D. As to the kind of experiment: Cytotoxicity against human T47D cells at 50 ug/ml after 48 hrs by BrdU incorporation assay relative to control. The class given is functional. To be noted: read-out: GI.
The nature of data set [15]: Induction of necrosis in human HSF cells at 50 ug/ml after 48 hrs by propidium iodide/Hoechst 33342 staining-based confocal microscopy (reference value: 4%). In kind it is cell-based.
Data set [16] can be described thus: Cytotoxicity against human HSF cells at 50 ug/ml after 24 hrs by BrdU incorporation assay relative to control. The class given is cell-based. Particulars: read-out: GI.
The test system of data set [17] is HeLa. Put plainly: Induction of apoptosis in human HeLa cells at 50 ug/ml after 48 hrs by propidium iodide/Hoechst 33342 staining-based confocal microscopy (reference value: 5%). The class given is functional.
A short description of data set [18]: Induction of apoptosis in human HSF cells at 50 ug/ml after 48 hrs by propidium iodide/Hoechst 33342 staining-based confocal microscopy (reference value: 5%). In kind it is cell-based.
In data set [19] the test system is HeLa. Put plainly: Induction of apoptosis in human HeLa cells at 50 ug/ml after 72 hrs by propidium iodide/Hoechst 33342 staining-based confocal microscopy (reference value: 5%). In kind it is functional.
Data set [20] deals with T47D. Put plainly: Induction of apoptosis in human T47D cells at 50 ug/ml after 24 hrs by propidium iodide/Hoechst 33342 staining-based confocal microscopy (reference value: 2%). In kind it is functional.
Data set [21] is described as follows: Induction of apoptosis in human HSF cells at 50 ug/ml after 72 hrs by propidium iodide/Hoechst 33342 staining-based confocal microscopy (reference value: 5%). In kind it is cell-based.
Data set [22] is described as follows: Cytotoxicity against human HSF cells at 50 ug/ml after 48 hrs by BrdU incorporation assay relative to control. The class given is cell-based. To be noted: read-out: GI.
Data set [23] has as its system T47D. As to the kind of experiment: Cytotoxicity against human T47D cells at 50 ug/ml after 72 hrs by BrdU incorporation assay relative to control. To be noted: read-out: GI. The class given is functional.
The nature of data set [24]: Cytotoxicity against human MM1R cells at 50 ug/ml after 24 hrs by BrdU incorporation assay relative to control. The class given is functional. To be noted: MM.1R, read-out: GI.
For data set [25], the system named is HeLa. Put plainly: Cytotoxicity against human HeLa cells at 50 ug/ml after 72 hrs by BrdU incorporation assay relative to control. Particulars: read-out: GI. In kind it is functional.
Data set [26] relates to T47D. Put plainly: Induction of apoptosis in human T47D cells at 50 ug/ml after 48 hrs by propidium iodide/Hoechst 33342 staining-based confocal microscopy (reference value: 2%). In kind it is functional.
The nature of data set [27]: Cytotoxicity against human MM1S cells at 50 ug/ml after 72 hrs by BrdU incorporation assay relative to control. The class given is functional. To be noted: MM1.S, read-out: GI.
Data set [28] is described as follows: Cytotoxicity against human MM1S cells at 50 ug/ml after 48 hrs by BrdU incorporation assay relative to control. The class given is functional. To be noted: MM1.S, read-out: GI.
Data set [29] has as its system T47D. As to the kind of experiment: Induction of necrosis in human T47D cells at 50 ug/ml after 48 hrs by propidium iodide/Hoechst 33342 staining-based confocal microscopy (reference value: 8%). The class given is functional.
Data set [30] deals with T47D. Put plainly: Induction of necrosis in human T47D cells at 50 ug/ml after 24 hrs by propidium iodide/Hoechst 33342 staining-based confocal microscopy (reference value: 5%). In kind it is functional.
The nature of data set [31]: Cytotoxicity against human MM1S cells at 50 ug/ml after 24 hrs by BrdU incorporation assay relative to control. In kind it is functional. Particulars: MM1.S, read-out: GI.
The subject of data set [32] is T47D. Put plainly: Cytotoxicity against human T47D cells at 50 ug/ml after 24 hrs by BrdU incorporation assay relative to control. The class given is functional. To be noted: read-out: GI.
Data set [33] is described as follows: Induction of necrosis in human HSF cells at 50 ug/ml after 72 hrs by propidium iodide/Hoechst 33342 staining-based confocal microscopy (reference value: 5%). The class given is cell-based.
Data set [34] concerns HeLa. Put plainly: Cytotoxicity against human HeLa cells at 50 ug/ml after 24 hrs by BrdU incorporation assay relative to control. The class given is functional. Particulars: read-out: GI.
Data set [35] is described as follows: Induction of necrosis in human HSF cells at 50 ug/ml after 24 hrs by propidium iodide/Hoechst 33342 staining-based confocal microscopy (reference value: 2%). In kind it is cell-based.
The nature of data set [36]: Cytotoxicity against human HSF cells at 50 ug/ml after 72 hrs by BrdU incorporation assay relative to control. In kind it is cell-based. Particulars: read-out: GI.
The nature of data set [37]: Cytotoxicity against human MM1R cells at 50 ug/ml after 48 hrs by BrdU incorporation assay relative to control. The class given is functional. To be noted: MM.1R, read-out: GI.
Data set [38] in a line: Cytotoxicity against human HSF cells at 50 ug/ml by BrdU incorporation assay. In kind it is cell-based. To be noted: TDE = time-dependent effect.
The nature of data set [39]: Toxicity in ip dosed albino-Swiss mouse. In kind it is organism-based. To be noted: in vivo.
Data set [40] in a line: Selectivity ratio for human RPMI8226 cells over human HSF cells. In kind it is ADME, cell-based, RPMI-8226. Particulars: RPMI8226 cells versus HSF cells.

For `COc1ccccc1N1CCn2c1nnc(-c1ccco1)c2=O`, the selectivity ratio at 72 h in data set [1] came out at 14; in data set [2] it was 16.

`O=c1c(-c2ccco2)nnc2n1CCN2c1ccccc1Cl`: the selectivity ratio at 48 h in [3] turned out to be 4. In [4], the selectivity ratio at 24 h was found to be 8. Besides, the selectivity ratio at 72 h in data set [2] came out at 5.

On to `O=c1c(-c2ccco2)nnc2n1CCN2c1c(Cl)cccc1Cl`, for which the selectivity ratio at 48 h in [3] was greater than 5. For the same compound, the selectivity ratio at 24 h in [4] was found to be 8. The selectivity ratio at 72 h in [2] is greater than 6.

As to `CCOC(=O)Cc1nnc2n(c1=O)CCN2c1ccccc1`, the Activity turned out to be 75% in data set [5]; 5% in data set [6]; 10% in data set [7]; 20% in data set [8]; 85% in data set [10]; 80% in data set [11]. Besides, the Activity in data set [13] turned out to be 10%; in data set [15] it was 50%; in data set [17], 15%; in data set [18], 5%; in data set [19] it was 15%; in data set [20], 5%. Also, the Activity in [21] is given as 8%; in data set [26] it was 10%; in data set [29] it was 80%; in data set [30] it was 40%; in [33], 50%; in data set [35] it was 25%. Further, the inhibition of growth at 50 µg/mL was determined as 90% in data set [9]; 75% in data set [12]; 80% in data set [14]; 85% in data set [23]; 80% in [24]; 75% in data set [25]. Moreover, the inhibition of growth at 50 µg/mL in data set [27] was determined as 80%; in data set [28] it was 30%; in data set [31], 25%; in data set [32] it was 40%; in [34], 20%; in [37], 85%. Also, the inhibition at 24 h, 50 ug/ml in [16] was 25%. For the same compound, the inhibition at 48 h, 50 ug/ml in data set [22] worked out at 50%. Further, the inhibition at 72 h, 50 ug/ml in [36] stood at 50%.

Turning to `CCOC(=O)Cc1nnc2n(c1=O)CCN2c1cccc(Cl)c1`, the Activity in data set [5] is recorded as 50%; in data set [6], 5%; in data set [7] it was 20%; in [8], 10%; in data set [10] it was 55%; in data set [11], 50%. Moreover, the Activity in data set [13] turned out to be 10%; in data set [15], 10%; in data set [17], 15%; in data set [18], 5%; in [19], 15%; in data set [20] it was 10%. Besides, the Activity was determined as 10% in data set [21]; 20% in [26]; 50% in data set [29]; 25% in data set [30]; 10% in data set [33]; 10% in data set [35]. The inhibition of growth at 50 µg/mL in data set [9] was 90%; in data set [12], 50%; in data set [14] it was 55%; in data set [23] it was 55%; in [24] it was 80%; in [25] it was 50%. Moreover, the inhibition of growth at 50 µg/mL in data set [27] turned out to be 80%; in data set [28], 60%; in [31], 55%; in data set [32], 55%; in [34] it was 10%; in [37] it was 85%. The inhibition at 24 h, 50 ug/ml in data set [16] was 10%. Moreover, the inhibition at 48 h, 50 ug/ml in data set [22] was 10%. The inhibition at 72 h, 50 ug/ml in [36] amounted to 10%.

For the compound `CCOC(=O)Cc1nnc2n(c1=O)CCN2c1ccc(Cl)cc1`, the Activity entry in data set [38] is reported as “tde”. In addition, the inhibition of growth at 50 µg/mL amounted to 90% in data set [9]; 30% in [12]; 50% in [14]; 50% in data set [23]; 80% in data set [24]; 40% in [25]. In addition, the inhibition of growth at 50 µg/mL in data set [27] worked out at 90%; in data set [28] it was 75%; in data set [31] it was 45%; in data set [32] it was 50%; in data set [34], 20%; in [37], 85%. The inhibition at 24 h, 50 ug/ml in data set [16] is 50%. Also, in data set [22], the inhibition at 48 h, 50 ug/ml came to 75%. Further, the inhibition at 72 h, 50 ug/ml in [36] was 80%.

For `COc1ccc(N2CCn3c2nnc(-c2ccccc2)c3=O)cc1`, the LD50 (in general, the dose expected to kill half of the subjects tested) in [39] was greater than 2000 mg/kg. The selectivity ratio in data set [40] turned out to be 1.7.

On to `O=c1c(-c2ccccc2)nnc2n1CCN2c1cccc(Cl)c1`, for which the selectivity ratio in data set [40] amounted to 1.5.

In [39], `O=c1c(-c2ccccc2)nnc2n1CCN2c1ccc(Cl)cc1` had an LD50 greater than 2000 mg/kg.
